Measured values as given in publication PMC3703823 (Clinical cancer research : an official journal of the …, 2011).
Values after ≈ are worked out from the molar mass of the structure shown.

How the values were obtained:
[1] = In vitro solubility; type: physicochemical
[2] = across animal species; cited from earlier work
[3] = tested on: human hepatocytes; details: in vitro; cited from earlier work
[4] = clinical; details: human, plasma, po
[5] = tested on: alpha-1-acid glycoprotein (AAG); experiment: SPR-based biosensor; type: binding; details: human
[6] = molecular target: AAG; details: cited from earlier work

Row | Structure (SMILES) | solubility ([1]; pH 0.1) [µg/mL] | solubility ([1]; pH 6.5) [µg/mL] | Oral bioavailability [2] | Compound remaining intact following coincubations with human hepatocytes [3] [%] | half-life [4] [h] | AUC(0-t) ([4]; 150 mg) [µM·h] | Cmax ([4]; 150 mg) [µM] | AUC(0-t) ([4]; 270 mg) [µM·h] | Cmax ([4]; 270 mg) [µM] | AUC(0-t) ([4]; 540 mg) [µM·h] | Cmax ([4]; 540 mg) [µM] | Kd [5] [µM] | KD for AAG (corresponding to reported KA) [6] [µM]
1 | CS(=O)(=O)c1ccc(C(=O)Nc2ccc(Cl)c(-c3ccccn3)c2)c(Cl)c1 [GDC-0449, 2-chloro-N-[4-chloro-3-(pyridin-2-yl)phenyl]-4-[methylsulfonyl]benzamide] | 990 (≈ 2350 µM) | 0.1 (≈ 0.237 µM) | good | ~100 | > 168 | 322 ± 185 | 3.58 ± 1.34 | 839 ± 458 | 6.34 ± 3.4 | 1010 | 6.81 ± 2.69 | 13 | 
2 | CN[C@@H]1C[C@H]2O[C@@](C)([C@@H]1OC)n1c3ccccc3c3c4c(c5c6ccccc6n2c5c31)C(=O)N[C@H]4O [UCN-01] |  |  |  |  |  |  |  |  |  |  |  |  | 0.00125
